Data as given in patent US9371265B2, “Compositions and methods related to inhibitors of JAK kinase” (EP PHARMA, INC., priority 2012, dated 2016).

Experiments:
[1] = tested on: IL-2/JAK3-dependent Kit225 cells; assay: Kit225 cell viability (MTS); type: cell-based, human
Description: FIGS. 2A-2F. […] (B) Kit225 or (C) BaF/3 cells cultured in the presence of IL-2 or IL-3, respectively, were treated with vehicle (PBS; lane a) or increasing amounts of EP009 (0-50 μM; lanes b-h) for 12 hours. Cells were then lysed, clarified, and immunoprecipitated (IP) with anti-JAK3 (α-JAK3) or anti-JAK2 (α-JAK2), and subjected to Western blot (WB) analysis with anti-phosphotyrosine (α-pY). Blots were stripped and reprobed with corresponding antibody to verify equivalent protein loading. (D) Immunopurified JAK3 was subjected to in vitro autokinase analysis after treatment with vehicle (DMSO; lanes a and b) or ascending concentrations of EP009 (0-10 μM; lanes c-f) for 1 hour at room temperature. […] (E) Kit225 or BaF/3 cells were cultured with increasing amounts of EP009 (0-10 μM) for 72 hours and cell viability measured with the MTS tetrazolium salt assay. Values represent mean absorbance (OD490-OD650 nm) normalized to vehicle (PBS) treated control cells, while error bars represent the standard deviation (n=3). (F) HEK293, HEPG2, or naïve primary human PBMCs were cultured with increasing amounts of EP009 (0-10 μM) for 72 hours and cell viability measured with the MTS tetrazolium salt assay. Values represent mean absorbance (OD490-OD650 nm) normalized to vehicle (PBS) treated control cells, while error bars represent the standard deviation (n=3). […]

CREB = assay: Phospho-CREB in SU-DHL-1 cells (Luminex multiplex); type: cell-based, human; conditions: 24 hours
Description: FIGS. 8A-8F. Effect of EP009 on ALCL cells is mediated through selective activation of ERK1/2 and JNK1/2 stress signaling pathways, and inhibition of p70 S6 kinase growth signaling pathways. SU-DHL-1 cells were treated with vehicle (PBS) or increasing amounts of EP009 (0-50 μM) for 24 hours. Cells were then lysed, clarified, and subjected to Luminex multiplex analysis to detect phosphorylated (A) ERK1/2, (B) JNK1/2, (C) p70 S6 kinase, (D) IκBα, (E) CREB, and (F) p38. Values represent mean fluorescence intensity (MFI) normalized to corresponding GAPDH MFI, while error bars represent the standard deviation (n=2). Representative data from two independent experiments are shown. Statistical significance was determined using Student's t-test. (*, p<0.05).
The MILLIPLEX MAP 8-plex Multi-Pathway Signaling Phosphoprotein kit (Millipore) was used to detect phosphorylated ERK1/2 (Thr185/Tyr187), STAT3 (Ser727), JNK1/2 (Thr183/Tyr185), p70 S6 kinase (Thr412), IκBα (Ser32), STAT5A/B (Tyr694/699), CREB (Ser133), and p38 (Thr180/Tyr182). The MILLIPLEX MAP 5-plex STAT Phosphoprotein kit (Millipore) was used to detect phosphorylated STAT1 (Tyr701), STAT2 (Tyr690), STAT3 (Tyr705), STAT5A/B (Tyr694/699), and STAT6 (Tyr641). The MILLIPLEX MAP Human Apoptosis 3-plex kit (Millipore) was used to detect cleaved PARP, cleaved Caspase 3, and total GAPDH for protein normalization.

ACVR1B = ACVR1B (Homo sapiens, UniProt P36896); assay: Kinase panel: ACVR1B; type: biochemical; conditions: 10 μM EP009
Description: (§1) Achieving JAK3 selectivity remains a significant challenge in the development of new small molecules for the treatment of cancer and immune-derived diseases. As such, the inventors employed cell-based screening assays of small-molecule libraries based upon the chemical scaffold of the established JAK3 inhibitor NC1153 (Stepkowski et al., J Immunol. (2005), 175(7):4236-4246) EP009 (FIG. 2A) was selected as a lead compound due to improved intrinsic stability (>95% purity in various solvents at 37° C. for 24 hours; FIG. 3) and high-degree of JAK3 selectivity. To test JAK3 versus JAK2 specificity of EP009, the IL-2/JAK3-dependent Kit225, and IL-3/JAK2-dependent BaF/3 cell lines were used. Kit225 and BaF/3 cells growing in the presence of IL-2 or IL-3, respectively, were treated with ascending concentrations of EP009 for 12 hours and cellular JAK3 and JAK2 tyrosine phosphorylation levels detected by Western blot analysis (FIGS. 2B and 2C). Following densitometric analysis, EP009 was determined to dose-dependently reduce IL-2-mediated JAK3 tyrosine phosphorylation with a cellular 50% inhibitory concentration (IC50) between 10 and 20 μM (FIG. 2B). […] To globally evaluate specificity, the inhibitory activity of EP009 was measured against a panel of protein kinases distributed throughout the kinome using the scanEDGE profiling service (KINOMEscan). […]

BRAF(V600E) = BRAF(V600E) (Homo sapiens, UniProt P15056, V600E); assay: Kinase panel: BRAF(V600E); type: biochemical; conditions: 10 μM EP009
Description: as §1

p38-beta = p38-beta (Homo sapiens, UniProt Q15759); assay: Kinase panel: p38-beta; type: biochemical; conditions: 10 μM EP009
Description: as §1

PRKCE = PRKCE (Homo sapiens, UniProt Q02156); assay: Kinase panel: PRKCE; type: biochemical; conditions: 10 μM EP009
Description: as §1

ULK2 = ULK2 (Homo sapiens, UniProt Q8IYT8); assay: Kinase panel: ULK2; type: biochemical; conditions: 10 μM EP009
Description: as §1

Sequence of p38-beta (Q15759 whole entry): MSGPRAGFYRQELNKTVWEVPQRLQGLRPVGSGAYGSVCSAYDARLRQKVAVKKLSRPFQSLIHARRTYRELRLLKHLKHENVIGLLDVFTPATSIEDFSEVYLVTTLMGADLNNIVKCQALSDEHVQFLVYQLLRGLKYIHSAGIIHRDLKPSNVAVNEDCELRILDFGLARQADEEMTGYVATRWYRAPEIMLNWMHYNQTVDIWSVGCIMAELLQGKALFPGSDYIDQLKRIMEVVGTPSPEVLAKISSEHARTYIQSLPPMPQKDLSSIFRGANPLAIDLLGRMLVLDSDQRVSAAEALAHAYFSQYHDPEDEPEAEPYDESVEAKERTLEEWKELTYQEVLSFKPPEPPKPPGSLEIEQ
Sequence of PRKCE (Q02156 whole entry): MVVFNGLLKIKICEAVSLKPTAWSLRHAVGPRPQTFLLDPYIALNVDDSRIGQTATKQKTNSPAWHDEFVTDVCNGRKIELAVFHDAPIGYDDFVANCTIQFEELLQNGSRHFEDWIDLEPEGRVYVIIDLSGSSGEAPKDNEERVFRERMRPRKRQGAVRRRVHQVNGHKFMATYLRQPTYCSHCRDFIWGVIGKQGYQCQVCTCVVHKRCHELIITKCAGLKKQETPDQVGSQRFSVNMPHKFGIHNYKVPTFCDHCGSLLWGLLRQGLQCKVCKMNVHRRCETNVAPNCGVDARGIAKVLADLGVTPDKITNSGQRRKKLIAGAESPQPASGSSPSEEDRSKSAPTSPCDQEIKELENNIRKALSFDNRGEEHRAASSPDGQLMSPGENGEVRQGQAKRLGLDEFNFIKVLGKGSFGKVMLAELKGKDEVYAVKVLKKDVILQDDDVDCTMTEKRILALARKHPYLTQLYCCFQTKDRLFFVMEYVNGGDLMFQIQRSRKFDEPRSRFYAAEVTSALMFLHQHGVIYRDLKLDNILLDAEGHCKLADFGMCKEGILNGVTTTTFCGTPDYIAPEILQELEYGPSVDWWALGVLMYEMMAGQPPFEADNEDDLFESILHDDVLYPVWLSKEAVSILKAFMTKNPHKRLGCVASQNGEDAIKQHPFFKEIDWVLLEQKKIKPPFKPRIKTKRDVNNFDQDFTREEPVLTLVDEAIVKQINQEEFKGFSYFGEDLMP
Sequence of ULK2 (Q8IYT8 whole entry): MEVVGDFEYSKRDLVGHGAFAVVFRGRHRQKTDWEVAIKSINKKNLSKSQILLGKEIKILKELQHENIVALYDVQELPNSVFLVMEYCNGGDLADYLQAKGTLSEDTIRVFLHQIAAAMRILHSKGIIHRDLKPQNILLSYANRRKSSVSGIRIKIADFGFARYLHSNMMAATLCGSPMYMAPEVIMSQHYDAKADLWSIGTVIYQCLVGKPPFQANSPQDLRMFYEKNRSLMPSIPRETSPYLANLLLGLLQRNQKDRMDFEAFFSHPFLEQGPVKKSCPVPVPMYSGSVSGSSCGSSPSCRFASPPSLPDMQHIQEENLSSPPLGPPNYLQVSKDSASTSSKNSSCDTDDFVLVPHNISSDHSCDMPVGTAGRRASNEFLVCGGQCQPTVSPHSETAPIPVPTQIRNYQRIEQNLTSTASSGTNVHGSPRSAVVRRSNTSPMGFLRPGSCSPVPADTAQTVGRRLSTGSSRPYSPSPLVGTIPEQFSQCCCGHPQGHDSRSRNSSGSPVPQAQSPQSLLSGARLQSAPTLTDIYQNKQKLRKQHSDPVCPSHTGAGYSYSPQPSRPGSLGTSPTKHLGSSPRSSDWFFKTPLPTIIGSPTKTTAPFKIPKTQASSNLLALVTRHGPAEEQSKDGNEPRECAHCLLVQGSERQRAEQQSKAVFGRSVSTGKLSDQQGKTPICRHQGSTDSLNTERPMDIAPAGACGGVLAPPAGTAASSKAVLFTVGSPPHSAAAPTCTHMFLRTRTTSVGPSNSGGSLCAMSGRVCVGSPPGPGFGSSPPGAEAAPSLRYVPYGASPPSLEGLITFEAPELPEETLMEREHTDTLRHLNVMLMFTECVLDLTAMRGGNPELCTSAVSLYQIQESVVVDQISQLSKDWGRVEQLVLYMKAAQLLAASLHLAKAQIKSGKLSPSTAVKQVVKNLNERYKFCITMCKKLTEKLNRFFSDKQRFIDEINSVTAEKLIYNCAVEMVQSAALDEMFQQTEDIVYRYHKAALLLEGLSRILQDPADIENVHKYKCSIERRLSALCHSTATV
Sequence of BRAF(V600E) (P15056 whole entry V600E): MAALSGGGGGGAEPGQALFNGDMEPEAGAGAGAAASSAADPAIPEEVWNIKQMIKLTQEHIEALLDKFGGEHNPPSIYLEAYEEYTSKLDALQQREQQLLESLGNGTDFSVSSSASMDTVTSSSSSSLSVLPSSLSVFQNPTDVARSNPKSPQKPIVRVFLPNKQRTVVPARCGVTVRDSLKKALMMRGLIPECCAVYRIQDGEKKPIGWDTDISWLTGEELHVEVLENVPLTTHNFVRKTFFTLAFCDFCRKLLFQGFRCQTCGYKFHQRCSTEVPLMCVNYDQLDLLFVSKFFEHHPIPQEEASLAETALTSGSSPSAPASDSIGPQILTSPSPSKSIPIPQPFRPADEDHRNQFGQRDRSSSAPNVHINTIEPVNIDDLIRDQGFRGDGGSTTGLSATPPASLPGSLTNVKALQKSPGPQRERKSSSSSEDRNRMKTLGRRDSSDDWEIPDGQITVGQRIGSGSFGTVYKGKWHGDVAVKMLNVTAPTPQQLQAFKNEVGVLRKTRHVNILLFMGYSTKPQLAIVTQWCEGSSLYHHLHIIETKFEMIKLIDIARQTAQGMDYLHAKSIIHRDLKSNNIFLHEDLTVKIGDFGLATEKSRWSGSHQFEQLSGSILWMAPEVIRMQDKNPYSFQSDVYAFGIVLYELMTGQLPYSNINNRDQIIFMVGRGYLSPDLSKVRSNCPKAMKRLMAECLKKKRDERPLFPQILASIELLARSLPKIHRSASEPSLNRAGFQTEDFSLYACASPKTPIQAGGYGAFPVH
Sequence of ACVR1B (P36896 24-505): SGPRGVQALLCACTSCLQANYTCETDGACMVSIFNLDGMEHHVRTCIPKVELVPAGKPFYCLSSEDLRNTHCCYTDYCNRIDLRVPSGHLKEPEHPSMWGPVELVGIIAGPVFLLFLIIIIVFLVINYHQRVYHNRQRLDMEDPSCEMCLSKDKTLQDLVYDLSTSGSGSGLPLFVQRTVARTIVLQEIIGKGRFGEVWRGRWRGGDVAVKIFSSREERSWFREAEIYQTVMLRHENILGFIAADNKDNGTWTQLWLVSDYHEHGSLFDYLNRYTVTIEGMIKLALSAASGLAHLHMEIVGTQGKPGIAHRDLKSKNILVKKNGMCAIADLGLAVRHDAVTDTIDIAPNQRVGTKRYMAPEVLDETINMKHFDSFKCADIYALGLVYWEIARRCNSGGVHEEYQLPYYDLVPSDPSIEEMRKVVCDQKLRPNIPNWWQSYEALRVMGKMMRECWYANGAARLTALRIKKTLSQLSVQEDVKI

## C=C1CCCCCCCCCC(CO)C1=O (centres unmarked) [EP009, 2-(Hydroxymethyl)-12-methylenecyclododecanone]
[1]; 72 hours
  concentration resulting in maximal loss of Kit225 cell viability: 7.5 to 10 µM
[1]; Homo sapiens, Kit225, 5.0 μM EP009, 72 hours, read-out: reduction in cell viability
  cytotoxicity at 5 µM: 55%
CREB
  CREB phosphorylation status: No statistically significant change
ACVR1B
  Kinase Activity (% of Control): 96 % of Control
BRAF(V600E)
  Kinase Activity (% of Control): 76 % of Control
p38-beta
  Kinase Activity (% of Control): 96 % of Control
PRKCE
  Kinase Activity (% of Control): 100 % of Control
ULK2
  Kinase Activity (% of Control): 58 % of Control
